Experimental data from US20240140938A1, “PREPARATION OF TETRAHYDROINDAZOLE DERIVATIVES AS NOVEL DIACYLGLYCERIDE O-ACYLTRANSFERASE 2 INHIBITORS” (MERCK SHARP & DOHME LLC, priority 2020, published 2024).

Target: human DGAT2 (hDGAT2) (Homo sapiens (Human), UniProt Q96PD7)
Experiment: DGAT2 Enzymatic Activity Assay
Assay type: biochemical
Details: hDGAT2 Sf-9 membrane prep; 13C18-triolein product by LC/MS/MS; 25 μM diolein, 5 μM 13C oleoyl-CoA
Summary of the method: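 Enzyme source was membrane fractions from Sf-9 cells infected with untagged hDGAT2 baculovirus. Reactions ran at room temperature, and product 13C18-triolein was quantified by LC/MS/MS against a 13C21-triolein internal standard. % inhibition was normalised to high and low controls, and IC50 derived from it.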

Sequence of human DGAT2 (hDGAT2) (Q96PD7 whole entry): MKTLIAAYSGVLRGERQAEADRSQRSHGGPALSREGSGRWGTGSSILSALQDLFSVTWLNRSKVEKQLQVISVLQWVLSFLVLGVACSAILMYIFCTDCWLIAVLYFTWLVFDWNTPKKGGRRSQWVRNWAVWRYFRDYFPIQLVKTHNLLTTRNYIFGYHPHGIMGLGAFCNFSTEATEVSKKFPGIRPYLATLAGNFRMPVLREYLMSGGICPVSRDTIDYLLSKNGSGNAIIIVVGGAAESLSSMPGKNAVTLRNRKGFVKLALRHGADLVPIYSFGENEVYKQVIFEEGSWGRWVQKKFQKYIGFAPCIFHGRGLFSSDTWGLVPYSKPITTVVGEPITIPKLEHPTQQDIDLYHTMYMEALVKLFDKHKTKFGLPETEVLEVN

Compound | IC50 [nM]
CC1(NC(=O)C2COc3c(-c4cccc(OC(F)F)c4)nn(-c4ccc(F)cn4)c3C2)CS(=O)(=O)C1 (racemic) [Example 119, 3-(3-(difluoromethoxy)phenyl)-1-(5-fluoropyridin-2-yl)-N-(3-methyl-1,1-dioxidothietan-3-yl)-1,5,6,7-tetrahydropyrano[3,2-c]pyrazole-6-carboxamide] | 0.33
O=C(N[C@@H]1CCC[C@H]1N1CCOCC1)C1CCc2c(-c3cccc(OC(F)F)c3)nn(-c3ccc(F)cn3)c2C1 (stereo partly drawn) [Example 16, 3-(3-(difluoromethoxy)phenyl)-1-(5-fluoropyridin-2-yl)-N-((1R,2R)-2-morpholinocyclopentyl)-4,5,6,7-tetrahydro-1H-indazole-6-carboxamide] | 66.9
N#CC1(NC(=O)[C@@H]2CCc3c(-c4cncc(OC(F)F)c4)nn(-c4ccc(F)cn4)c3C2)CCOC1 (single isomer, unassigned) [Example 15b] | 236
CC(C)n1nc(-c2cccc(C3CC3)c2)c2c1C[C@H](C(=O)NC1(C)CS(=O)(=O)C1)CO2 [Example 125, (S)-3-(3-cyclopropylphenyl)-1-isopropyl-N-(3-methyl-1,1-dioxidothietan-3-yl)-1,5,6,7-tetrahydropyrano[3,2-c]pyrazole-6-carboxamide] | 22.2
CC(C)n1nc(-c2cccc(CC#N)c2)c2c1C[C@H](C(=O)NC1(C)CS(=O)(=O)C1)CC2 [Example 94, (R)-3-(3-(cyanomethyl)phenyl)-1-isopropyl-N-(3-methyl-1,1-dioxidothietan-3-yl)-4,5,6,7-tetrahydro-1H-indazole-6-carboxamide] | > 10000
CC1(NC(=O)[C@@H]2CCc3c(-c4cccc(OC(F)F)c4)nn(C4CCOCC4)c3C2)CS(=O)(=O)C1 [Example 23, (R)-3-(3-(difluoromethoxy)phenyl)-N-(3-methyl-1,1-dioxidothietan-3-yl)-1-(tetrahydro-2H-pyran-4-yl)-4,5,6,7-tetrahydro-1H-indazole-6-carboxamide] | 169
CC1(NC(=O)[C@@H]2CCc3c(-c4cccc(OC(F)F)c4)nn(-c4ncc(F)cc4F)c3C2)CS(=O)(=O)C1 [Example 9, (R)-3-(3-(difluoromethoxy)phenyl)-1-(3,5-difluoropyridin-2-yl)-N-(3-methyl-1,1-dioxidothietan-3-yl)-4,5,6,7-tetrahydro-1H-indazole-6-carboxamide] | 10.2
C[C@]1(NC(=O)C2CCc3c(-c4cccc(OC(F)F)c4)nn(-c4ncc(Cl)cn4)c3C2)CCS(=O)(=O)C1 (stereo partly drawn) [Example 10, 1-(5-chloropyrimidin-2-yl)-3-(3-(difluoromethoxy)phenyl)-N-((S)-3-methyl-1,1-dioxidotetrahydrothiophen-3-yl)-4,5,6,7-tetrahydro-1H-indazole-6-carboxamide] | 37
C[C@]1(NC(=O)[C@@H]2Cc3c(c(-c4cccc(OC(F)F)c4)nn3C3CCOCC3)C(F)(F)C2)CCS(=O)(=O)C1 (single isomer, unassigned) [Example 117a] | > 10000
C[C@]1(NC(=O)[C@@H]2CCc3c(-c4cccc(OC(F)F)c4)nn(C(=O)C4CC4)c3C2)CCS(=O)(=O)C1 [Example 74, (R)-1-(cyclopropanecarbonyl)-3-(3-(difluoromethoxy)phenyl)-N-((S)-3-methyl-1,1-dioxidotetrahydrothiophen-3-yl)-4,5,6,7-tetrahydro-1H-indazole-6-carboxamide] | 2910
C[C@]1(NC(=O)[C@@H]2CCc3c(-c4cccc(OC(F)F)c4)nn(Cc4ccccc4)c3C2)CCS(=O)(=O)C1 [Example 77, (R)-1-benzyl-3-(3-(difluoromethoxy)phenyl)-N-((S)-3-methyl-1,1-dioxidotetrahydrothiophen-3-yl)-4,5,6,7-tetrahydro-1H-indazole-6-carboxamide] | 577

Results, then the compound that gave them:

IC50 [nM] | Compound
21.5 | CC(C)n1nc(-c2cc(OC(F)F)ccc2F)c2c1CC(C(=O)NC1(C)CS(=O)(=O)C1)CO2 (racemic) [Example 121, 3-(5-(difluoromethoxy)-2-fluorophenyl)-1-isopropyl-N-(3-methyl-1,1-dioxidothietan-3-yl)-1,5,6,7-tetrahydropyrano[3,2-c]pyrazole-6-carboxamide]
> 10000 | CC(C)n1nc(-c2cccc(OCC#N)c2)c2c1C[C@H](C(=O)NC1(C)CS(=O)(=O)C1)CC2 [Example 96, (R)-3-(3-(cyanomethoxy)phenyl)-1-isopropyl-N-(3-methyl-1,1-dioxidothietan-3-yl)-4,5,6,7-tetrahydro-1H-indazole-6-carboxamide]
18.4 | CC(C)n1nc(-c2cc(OCC(F)(F)F)ncc2F)c2c1C[C@H](C(=O)NC1(C)CCS(=O)(=O)CC1)CC2 [Example 45, (R)-3-(5-fluoro-2-(2,2,2-trifluoroethoxy)pyridin-4-yl)-1-isopropyl-N-(4-methyl-1,1-dioxidotetrahydro-2H-thiopyran-4-yl)-4,5,6,7-tetrahydro-1H-indazole-6-carboxamide]
86.6 | CC(C)n1nc(-c2cccc(OC(F)(F)F)c2)c2c1C[C@H](C(=O)NC1(C)CCS(=O)(=O)CC1)CC2 [Example 55, (R)-1-isopropyl-N-(4-methyl-1,1-dioxidotetrahydro-2H-thiopyran-4-yl)-3-(3-(trifluoromethoxy)phenyl)-4,5,6,7-tetrahydro-1H-indazole-6-carboxamide]
4.6 | CC(C)n1nc(-c2cc(OCC(F)F)ncc2F)c2c1C[C@H](C(=O)NC1(C)CCS(=O)(=O)CC1)CC2 [Example 40, (R)-3-(2-(2,2-difluoroethoxy)-5-fluoropyridin-4-yl)-1-isopropyl-N-(4-methyl-1,1-dioxidotetrahydro-2H-thiopyran-4-yl)-4,5,6,7-tetrahydro-1H-indazole-6-carboxamide]
5.5 | CC(C)n1nc(-c2cc(OC(F)F)ccc2F)c2c1C[C@H](C(=O)NC1(C)CCS(=O)(=O)CC1)CC2 [Example 30, (R)-3-(5-(difluoromethoxy)-2-fluorophenyl)-1-isopropyl-N-(4-methyl-1,1-dioxidotetrahydro-2H-thiopyran-4-yl)-4,5,6,7-tetrahydro-1H-indazole-6-carboxamide]
27.8 | CC(n1nc(-c2cc(OCC(F)(F)F)ncc2F)c2c1C[C@H](C(=O)NC1(C#N)CCS(=O)(=O)CC1)CC2)C(C)(C)O (single isomer, unassigned) [Example 113a]
> 10000 | CC(C)n1nc(-c2cc(C#N)ccc2F)c2c1C[C@H](C(=O)NC1(C)CS(=O)(=O)C1)CC2 [Example 101, (R)-3-(5-cyano-2-fluorophenyl)-1-isopropyl-N-(3-methyl-1,1-dioxidothietan-3-yl)-4,5,6,7-tetrahydro-1H-indazole-6-carboxamide]
29.1 | CC(C)n1nc(-c2cccc(OC3CC3)c2)c2c1C[C@H](C(=O)NC1(C)CCS(=O)(=O)CC1)CC2 [Example 32, (R)-3-(3-cyclopropoxyphenyl)-1-isopropyl-N-(4-methyl-1,1-dioxidotetrahydro-2H-thiopyran-4-yl)-4,5,6,7-tetrahydro-1H-indazole-6-carboxamide]
74.3 | CC(C)Oc1cc(-c2nn(C(C)C)c3c2CC[C@@H](C(=O)NC2(C)CCS(=O)(=O)CC2)C3)c(F)cn1 [Example 38, (R)-3-(5-fluoro-2-isopropoxypyridin-4-yl)-1-isopropyl-N-(4-methyl-1,1-dioxidotetrahydro-2H-thiopyran-4-yl)-4,5,6,7-tetrahydro-1H-indazole-6-carboxamide]
